Results from patent US6809115B2, “METHODS AND COMPOSITIONS FOR THE TREATMENT OF DIABETES, THE REDUCTION OF BODY FAT, IMPROVEMENT OF INSULIN SENSITIVITY, REDUCTION OF HYPERGLYCEMIA, AND REDUCTION OF HYPERCHOLESTEROLEMIA WITH CHROMIUM COMPLEXES, CONJUGATED FATTY ACIDS, AND/OR CONJUGATED FATTY ALCOHOLS” (Nutrition 21, Inc., priority 2000, dated 2004).

Tests used:
[1] = patients treated for obesity; cited from earlier work
[2] = rats, oral CrCl3, co-administered NSAID; cited from earlier work
[3] = in vivo; cited from earlier work
[4] = test system: human skeletal muscle culture; experiment: glucose uptake in human skeletal muscle culture; assay type: cell-based; conditions: FIGS. 1 and 2, axis in pico Moles per milligram
Source text: FIG. 2 graphs the effect of CP+CLA on glucose uptake in human skeletal muscle culture.
FIG. 3 illustrates the effect of CP+CLA on glucose uptake in human skeletal muscle culture.
Embodiments of the present invention include compositions which contain a conjugated fatty acid or conjugated fatty alcohol in combination with at least one chromium complex. Additionally, uses of the compositions disclosed herein to treat diabetes and/or obesity are provided. The co-administration of a conjugated fatty acid or conjugated fatty alcohol and at least one chromium complex provides a number of advantages over conventional pharmaceutical regimes for the treatment of diabetes and promotion of weight loss. One advantage of the compositions described herein over conventional treatment regimes for diabetes (such as injection of insulin) and weight loss is that compositions comprising a conjugated compound such as a conjugated fatty acid or conjugated fatty alcohol and at least one chromium complex have no known side effects while still providing efficacy in glucose uptake and weight loss. […] Those bars on FIGS. 1, 2, and 3 representing Chromium Picolinate (CP) and Conjugated Linoleic Acid (CLA) are measured in nanograms per milliliter.

[5] = growing animals; cited from earlier work
[6] = cited from earlier work

In the case of CC(C)CC(N(C)C)C1(c2ccc(Cl)cc2)CCC1 (stereo not drawn) [Sibutramine], the side effects [1] is listed as “increases blood pressure in a subset of patients”.

In the case of CC(=O)Oc1ccccc1C(=O)O [aspirin, acetylsalicylic acid], the chromium absorption [2] is listed as “facilitated”.

For CCCCCCCCCCC[C@@H](C[C@@H]1OC(=O)[C@H]1CCCCCC)OC(=O)[C@H](CC(C)C)NC=O [orlistat], the side effects [1] is listed as “may have unpleasant gastrointestinal side effects”.

For chromium picolinate, the “weight loss and body composition” value [3] is given as “modest weight loss and changes in body composition”.

In the case of conjugated linoleic acid [CLA], the glucose uptake ([4]; basal (without insulin)) is given as “no effect”, the glucose uptake ([4]; stimulated (with insulin)) is given as “no effect” and the “reduction of fat gain” value [5] is given as 25%-70%. The “effect of CLA alone in obese subjects” value ([6]; added to standard diet and exercise) was “no effect” and the fat mass ([6]; subgroup who did not follow diet and exercise well and gained lean body mass, placebo subjects had increase) was “reduction in fat mass”.
